pIC50: −log10 of the molar value. In brackets after ≈: the same amount, converted by molar mass.
What was measured:
Sortase A = target: T1, Sortase A (Staphylococcus aureus, UniProt Q9S446); assay: Inhibition of SrtA
T1 sequence (Q9S446 whole entry): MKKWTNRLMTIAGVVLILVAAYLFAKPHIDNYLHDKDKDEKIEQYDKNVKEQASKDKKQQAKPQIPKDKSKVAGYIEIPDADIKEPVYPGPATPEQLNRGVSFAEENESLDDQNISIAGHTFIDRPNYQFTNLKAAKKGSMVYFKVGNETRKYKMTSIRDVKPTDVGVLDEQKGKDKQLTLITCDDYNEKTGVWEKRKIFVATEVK

Staphylococcus aureus [1] = assay: Antimicrobial activity against Staphylococcus aureus Newman; format: functional
Staphylococcus aureus [2] = assay: Inhibition of Staphylococcus aureus SKM12 adhesion to fibronectin in relative to wild type; format: functional; parameters: scale not given: the % may be the effect or the level left
Staphylococcus aureus [3] = assay: Inhibition of Staphylococcus aureus Newman adhesion to fibronectin; format: functional, organism-based

| Structure (SMILES) | pIC50 (Sortase A) | MIC (Staphylococcus aureus [1]) | Activity (Staphylococcus aureus [2]) | Activity (Staphylococcus aureus [3]) |
| --- | --- | --- | --- | --- |
| COc1cc2ccnc3c2c(c1OC)NC=C3 [AAPTAMINE] | 3.99 | > 200 µg/mL | – | – |
| COC1=Cc2ccnc3ccnc(c23)C1=O [DEMETHYLOXY-AAPTAMINE] | 4.02 | 25 µg/mL (≈ 118 µM) | – | – |
| COc1ccc2cc3[n+](cc2c1OC)CCc1cc2c(cc1-3)OCO2.[Cl-] [BERBERINE CHLORIDE] | 4.63 | 100 µg/mL | – | – |
| Oc1cc2ccnc3c2c(c1O)NC=C3 [DEMETHYLAAPTAMINE] | 4.07 | 25 µg/mL (≈ 125 µM) | – | – |
| COc1cc2ccnc3c2c(c1O)N(C)C=C3 [ISOAAPTAMINE] | 4.79 | 50 µg/mL (≈ 219 µM) | 99% | Dose-dependent effect |

Source: ChEMBL document CHEMBL1149701, “Aaptamines as sortase A inhibitors from the tropical sponge Aaptos aaptos” (Bioorg Med Chem Lett, 2007)
